Experimental data published in patent US4072574A, “System for in vitro assay for mutagenicity and/or carcinogenicity of chemicals or other exogenous agents” (priority 1976, dated 1978).

Key:
[1] = known status of the compound; cited from earlier work
AMV DNA polymerase = test: Fidelity of in vitro DNA synthesis (error frequency) with AMV DNA polymerase copying synthetic polynucleotide templates
Text: In this invention, the ability of carcinogens to decrease the fidelity of in vitro DNA synthesis will be used to screen for carcinogenic or mutagenic agents. The system uses synthetic polynucleotides of defined composition which may be copied in the test tubes with procaryotic, eucaryotic or viral DNA polymerases. The use of synthetic polynucleotides of defined composition allows the measurement of the simultaneous incorporation of the correct, complementary nucleotide and an incorrect, non-complementary nucleotide. The correct nucleotide is labeled with [α-^32 P] of low specific activity and the incorrect nucleotide is labeled with [^3 H] of high specific activity. Through this double labeled reaction it is possible to determine the simultaneous incorporation of both nucleotides and thus to determine an error frequency. The error frequency may be defined as the ratio of the incorrect/correct nucleotide incorporation. Agents which increase this error frequency may be scored as positive. […] Agents which score positive would be checked using different templates to underscore the positive results. In this system different polymerases will be used as well as different templates. One would expect that most carcinogens would change the fidelity of DNA synthesis with different polymerases as well as with different templates though this need not be the case.
Each assay will consist of a polymerase, a polynucleotide template that only contains one or two nucleotides, a complementary nucleotide and a non-complementary nucleotide as well as magnesium. Both of the nucleotides will be labeled by radioactive precursors and the ratio between the two is to be used for a measure of error frequency in the system. In instances where a template requires two complementary nucleotides, only one will be radioactively labeled.
Reactions (total volume 0.05 ml) which measured complementary nucleotide incorporation contained 50 mM Tris-HCL (pH 8.0), 20 mM KCl, 5 mM dithiothreitol, 5 mM MgCl2, 2μg BSA, […] [α-^32 P] -dTTP (60 dpm/pmole), 1μg poly (A).oligo (dT) (1:1.5 mass ratio), and 0.45 μg of AMV DNA polymerase. For simultaneous quantitation of complementary and non-complementary nucleotide incorporation each reaction was modified to contain 26μM [α-^32 P]dTTP (12 dpm/pmole) and 23μM [^3 H]-dCTP (50,000 dpm/pmole). […] Metals were added directly to the reaction mixture as aqueous solutions of chloride salts. All reactions were incubated for 60 min. at 37° C. Incorporation of radioactive nucleotides into an acid-insoluble and alkali-resistant product was determined by using the precipitation-solubilization procedure as described by Battula and Loeb. All experiments were performed in triplicate and the averages were determined.
In order to determine the effect of different metals on the accuracy of DNA replication, metal cations were added as chloride salts directly to the polymerase reaction. In these experiments, poly (A).oligo (dT) was the template-primer and the simultaneous incorporation of complementary nucleotide, [α-^32 P]-dTMP, and the non-complementery nucleotide, [^3 H]-dCMP, was determined.
The effect of metal salts on the fidelity of DNA synthesis was examined by testing each of the metal salts at a minimum of seven different concentrations.

[2] = Table 1, template poly [d(A-T)], classes 1-3 not defined
[3] = Table 1, template poly (C).oligo (dG), classes 1-3 not defined
[4] = 0.8 mM Ca(C2 H3 O2)2, template in drawing 3
[5] = 2.4 mM Ca(C2 H3 O2)2, template in drawing 3
[6] = 4.0 mM Ca(C2 H3 O2)2, template in drawing 3
[7] = 4.8 mM Ca(C2 H3 O2)2, template in drawing 3
[8] = 0.08 mM CrCl2, template in drawing 1
[9] = 0.16 mM CrCl2, template in drawing 1
[10] = 0.24 mM CrCl2, template in drawing 1
[11] = 0.64 mM CrCl2, template in drawing 1
[12] = 0.02 mM CuCl2, template in drawing 2
[13] = 0.04 mM CuCl2, template in drawing 2
[14] = 0.08 mM CuCl2, template in drawing 2
[15] = 0.12 mM CuCl2, template in drawing 2
[16] = 8 mM K2 HPO4, template in drawing 4
[17] = 16 mM K2 HPO4, template in drawing 4
[18] = 32 mM K2 HPO4, template in drawing 4
[19] = 40 mM K2 HPO4, template in drawing 4

O=S(=O)([O-])[O-].O=S(=O)([O-])[O-].O=S(=O)([O-])[O-].[Al+3].[Al+3] [(Al)2 (SO4)3]
Carcinogen or Mutagen [1]: - | Class (AMV DNA polymerase; [2]): 2 | Metal Concentration which yielded the largest observed change in error rate (AMV DNA polymerase; template poly [d(A-T)]): 10 mM

N.N.O=S(=O)(O)O [(NH4)2 SO4]
Carcinogen or Mutagen [1]: - | Class (AMV DNA polymerase; [3]): 2 | Metal Concentration which yielded the largest observed change in error rate (AMV DNA polymerase; template poly (C).oligo (dG)): 120 mM

O=[N+]([O-])[O-].[Ag+] [AgNO3]
Carcinogen or Mutagen [1]: + | Class (AMV DNA polymerase; [2]): 1 | Metal Concentration which yielded the largest observed change in error rate (AMV DNA polymerase; template poly [d(A-T)]): 0.03 mM

CC(=O)O [Ca(C2 H3 O2)2]
Complementary Deoxynucleotide Incorporation (AMV DNA polymerase; [4]): 217 pmol | Error Frequency (AMV DNA polymerase; [4]): 1/986 | Non-complementary Deoxynucleotide Incorporation (AMV DNA polymerase; [4]): 0.22 pmol | Complementary Deoxynucleotide Incorporation (AMV DNA polymerase; [5]): 78 pmol | Error Frequency (AMV DNA polymerase; [5]): 1/975 | Non-complementary Deoxynucleotide Incorporation (AMV DNA polymerase; [5]): 0.08 pmol | Complementary Deoxynucleotide Incorporation (AMV DNA polymerase; [6]): 39 pmol | Error Frequency (AMV DNA polymerase; [6]): 1/975 | Non-complementary Deoxynucleotide Incorporation (AMV DNA polymerase; [6]): 0.04 pmol | Complementary Deoxynucleotide Incorporation (AMV DNA polymerase; [7]): 17 pmol | Error Frequency (AMV DNA polymerase; [7]): 1/850 | Non-complementary Deoxynucleotide Incorporation (AMV DNA polymerase; [7]): 0.02 pmol | Class (AMV DNA polymerase; Table 2, classes not defined): 2

CC(=O)[O-].CC(=O)[O-].[Cd+2] [Cd(C2 H3 O2)2]
Carcinogen or Mutagen [1]: + | Class (AMV DNA polymerase; [3]): 1 | Metal Concentration which yielded the largest observed change in error rate (AMV DNA polymerase; template poly (C).oligo (dG)): 0.24 mM

[Cl][Cd][Cl] [CdCl2]
Carcinogen or Mutagen [1]: + | Class (AMV DNA polymerase; [3]): 1 | Metal Concentration which yielded the largest observed change in error rate (AMV DNA polymerase; template poly (C).oligo (dG)): 0.04 mM

[Cl][Cr][Cl] [CrCl2]
Carcinogen or Mutagen [1]: + | Complementary Deoxynucleotide Incorporation (AMV DNA polymerase; [8]): 133 pmol | Error Frequency (AMV DNA polymerase; [8]): 1/578 | Non-complementary Deoxynucleotide Incorporation (AMV DNA polymerase; [8]): 0.23 pmol | Complementary Deoxynucleotide Incorporation (AMV DNA polymerase; [9]): 169 pmol | Error Frequency (AMV DNA polymerase; [9]): 1/528 | Non-complementary Deoxynucleotide Incorporation (AMV DNA polymerase; [9]): 0.32 pmol | Complementary Deoxynucleotide Incorporation (AMV DNA polymerase; [10]): 127 pmol | Error Frequency (AMV DNA polymerase; [10]): 1/363 | Non-complementary Deoxynucleotide Incorporation (AMV DNA polymerase; [10]): 0.35 pmol | Complementary Deoxynucleotide Incorporation (AMV DNA polymerase; [11]): 71 pmol | Error Frequency (AMV DNA polymerase; [11]): 1/192 | Non-complementary Deoxynucleotide Incorporation (AMV DNA polymerase; [11]): 0.37 pmol | Class (AMV DNA polymerase; [2]): 1 | Metal Concentration which yielded the largest observed change in error rate (AMV DNA polymerase; template poly [d(A-T)]): 0.64 mM

[O]=[Cr](=[O])=[O] [CrO3]
Carcinogen or Mutagen [1]: + | Class (AMV DNA polymerase; [2]): 1 | Metal Concentration which yielded the largest observed change in error rate (AMV DNA polymerase; template poly [d(A-T)]): 16 mM

CC(=O)[O-].CC(=O)[O-].[Cu+2] [Cu(C2 H3 O2)2]
Carcinogen or Mutagen [1]: ± | Class (AMV DNA polymerase; [3]): 1 | Metal Concentration which yielded the largest observed change in error rate (AMV DNA polymerase; template poly (C).oligo (dG)): 0.12 mM

[Cl][Cu][Cl] [CuCl2]
Carcinogen or Mutagen [1]: ± | Complementary Deoxynucleotide Incorporation (AMV DNA polymerase; [12]): 385 pmol | Error Frequency (AMV DNA polymerase; [12]): 1/875 | Non-complementary Deoxynucleotide Incorporation (AMV DNA polymerase; [12]): 0.44 pmol | Complementary Deoxynucleotide Incorporation (AMV DNA polymerase; [13]): 130 pmol | Error Frequency (AMV DNA polymerase; [13]): 1/722 | Non-complementary Deoxynucleotide Incorporation (AMV DNA polymerase; [13]): 0.18 pmol | Complementary Deoxynucleotide Incorporation (AMV DNA polymerase; [14]): 54 pmol | Error Frequency (AMV DNA polymerase; [14]): 1/540 | Non-complementary Deoxynucleotide Incorporation (AMV DNA polymerase; [14]): 0.10 pmol | Complementary Deoxynucleotide Incorporation (AMV DNA polymerase; [15]): 36 pmol | Error Frequency (AMV DNA polymerase; [15]): 1/450 | Non-complementary Deoxynucleotide Incorporation (AMV DNA polymerase; [15]): 0.08 pmol | Class (AMV DNA polymerase; [3]): 1 | Metal Concentration which yielded the largest observed change in error rate (AMV DNA polymerase; template poly (C).oligo (dG)): 0.08 mM

[Cl][Fe][Cl] [FeCl2]
Carcinogen or Mutagen [1]: ± | Class (AMV DNA polymerase; [3]): 2 | Metal Concentration which yielded the largest observed change in error rate (AMV DNA polymerase; template poly (C).oligo (dG)): 4 mM

O=P([O-])([O-])O.[K+].[K+] [K2 HPO4]
Carcinogen or Mutagen [1]: - | Complementary Deoxynucleotide Incorporation (AMV DNA polymerase; [16]): 179 pmol | Error Frequency (AMV DNA polymerase; [16]): 1/814 | Non-complementary Deoxynucleotide Incorporation (AMV DNA polymerase; [16]): 0.22 pmol | Complementary Deoxynucleotide Incorporation (AMV DNA polymerase; [17]): 180 pmol | Error Frequency (AMV DNA polymerase; [17]): 1/783 | Non-complementary Deoxynucleotide Incorporation (AMV DNA polymerase; [17]): 0.23 pmol | Complementary Deoxynucleotide Incorporation (AMV DNA polymerase; [18]): 107 pmol | Error Frequency (AMV DNA polymerase; [18]): 1/823 | Non-complementary Deoxynucleotide Incorporation (AMV DNA polymerase; [18]): 0.13 pmol | Complementary Deoxynucleotide Incorporation (AMV DNA polymerase; [19]): 48 pmol | Error Frequency (AMV DNA polymerase; [19]): 1/960 | Non-complementary Deoxynucleotide Incorporation (AMV DNA polymerase; [19]): 0.05 pmol | Class (AMV DNA polymerase; [2]): 2 | Class (AMV DNA polymerase; Table 2, classes not defined): 2 | Metal Concentration which yielded the largest observed change in error rate (AMV DNA polymerase; template poly [d(A-T)]): 40 mM
